This assay concerns bradykinin-induced plasma leakage in rat urinary bladder. As to the kind of experiment: bradykinin-induced plasma leakage test in rat urinary bladder. The assay is classed as in vivo. The conditions noted are these: test compound at a concentration of 1.5 μM, i.v. 3 ml/kg, bradykinin 10 nmol/kg i.v. As for the experimental part: The bradykinin antagonist activity of the dihydropyridine compounds in vivo is evaluated by a plasma leakage test. This test essentially involve determining the concentration of the individual compound required to reduce by 50% the amount of bradykinin-induced plasma leakage in rat urinary bladder, thereby affording characteristic ED50 values for each compounds tested.
More specifically, the assay is carried out as follows. 3.5-week old male Sprague-Dawlew rats are purchased from Charles River Japan Inc. The rats are fed on stock diet (CRF from Charles River Japan, Inc.) and maintained under the standard conditions (temperature, 23±1° C. and humidity 55±5%) for at least 3 days. The rats are fasted overnight prior to the experiments. Each test group consists of 5 rats. […]
Captopril (5 mg/kg of body weight) is intraperitoneally (i.p.) injected to the rats, and 20 min later the rats are anesthetized by an administration of Nembutal (Abbott) ([…] of body weight). […] The absorbance of the extract is measured spectrophotometrically at 605 nm to determined the dye concentration. The effect of the individual test compound is calculated as a percentage of the amount of Evans blue leaked into the urinary bladder as compared to the control (saline for the test compounds).

Consider `COC(=O)C1=C(CCc2ccccc2OC)NC(CC(=O)N2CCN(C3CC4CCC(C3)N4C)CC2)=C(C(=O)OC)C1c1c(Cl)cccc1Cl` (stereo not shown) [dimethyl 4-(2,6-dichlorophenyl)-6-[2-(2-methoxyphenyl)ethyl]-2-[4-(8-methyl-8-azabicyclo[3.2.1]oct-3-yl)-1-piperazinyl]carbonylmethyl-1,4-dihydropyridine-3,5-dicarboxylate], for which the “inhibition of urinary bladder leakage (Evans blue)” value is on record as “did not show significant in vivo activity”.

(Values after US6131226A, “1,4-dihydropyridine compounds as bradykinin antagonists” (Pfizer Inc., priority 1996, dated 2000).)
